Experimental data taken from patent US10646488B2 (Araxes Pharma LLC, priority 2016, dated 2020).

Biological target: T1, KRAS G12C 1-169, his-tagged protein, GDP-loaded (Homo sapiens, UniProt P01116, G12C)
T1 construct: KRAS G12C 1-169, his-tagged protein, GDP-loaded
Assay: Covalent binding (% modification) to KRAS G12C by mass spectrometry
Details: covalent binding to KRAS G12C after a three minute incubation period
Experimental: Test compounds were prepared as 10 mM stock solutions in DMSO (Fisher cat # BP-231-100). KRAS G12C 1-169, his-tagged protein, GDP-loaded was diluted to 2 μm in buffer (20 mM Hepes, 150 mM NaCl, 1 mM MgCl2). Compounds were tested for activity as follows:
Compounds were diluted to 50× final test concentration in DMSO in 96-well storage plates. Compound stock solutions were vortexed before use and observed carefully for any sign of precipitation. Dilutions were as follow: • For 100 μM final compound concentration, compounds were diluted to 5000 μM (5 μl 10 mM compound stock+5 μl DMSO and mixed well by pipetting. • For 30 μM final compound concentration, compounds were diluted to 1500 μM (3 μl 10 mM compound stock+17 μl DMSO) and mixed well by pipetting. • For 10 μM final compound concentration, compounds were diluted to 500 μM (2 μl 10 mM compound stock+38 μl DMSO) and mixed well by pipetting. 49 μl of the stock protein solution was added to each well of a 96-well PCR plate (Fisher cat #1423027). 1 μl of the diluted 50× compounds were added to appropriate wells in the PCR plate using 12-channel pipettor. Reactions were mixed carefully and thoroughly by pipetting up/down with a 200·1 multi-channel pipettor. […] 5 μl of 2% formic acid (Fisher cat # A117) in DI H2O was then added to each well followed by mixing with a pipette. The plate was then resealed with aluminum seal and stored on dry ice until analyzed as described below.
The above described assays were analyzed by mass spectrometry according to one of the following two procedures:
The MS instrument is set to positive polarity, 2 GHz resolution, and low mass (1700) mode and allowed to equilibrate for 30 minutes. The instrument is then calibrated, switched to acquisition mode and the appropriate method loaded.
After another 30 minute equilibration time, a blank batch (i.e., buffer) is run to ensure equipment is operating properly. The samples are thawed at 37° C. for 10 minutes, briefly centrifuged, and transfer to the bench top. Wells A1 and H12 are spiked with 1 uL 500 uM internal standard peptide, and the plates centrifuged at 2000×g for 5 minutes. The method is then run and masses of each individual well recorded.
The masses (for which integration data is desired) for each well are pasted into the platemap and exported from the analysis. Masses for the internal standards are exported as well. The data at 50 ppm is extracted for the +19 charge state, and identity of well A1 is assigned using the internal standard spike and integrated. Peak data is exported as a TOF list and the above steps are repeated individually, for the +20, 21, 22, 23, 24, and 25 charge states.
The masses and peak intensities of KRAS G12C protein species were measured using a Dionex RSLCnano system (Thermo Scientific) connected to a Q Exactive Plus mass spectrometer (Thermo Scientific).
[…] of sample was each loaded onto a Aeris™ 3.6 μm WIDEPORE C4 200 Å, LC Column 50×2.1 mm column maintained at 40° C. at a flow rate of 600 μl min^−1 with […] (0.1% formic acid in acetonitrile). The liquid chromatography conditions were 20% solvent B for 1 min, 20% to 60% solvent B for 1.5 min, 60% to 90% solvent for 0.5 min, 90% solvent B for 0.2 min, 90% to 20% solvent B for 0.2 min, and then equilibrated for 1.6 min before the following sample injection. The flow rate was maintained at 600 μl min^−1 throughout the sample analysis.
The mass spectrometer was operated in profile mode at a resolution of 17500, 5 microscans, using 50 msec max injection time and an AGC target of 1e6, and a full mass range from 800-1850 m/z was recorded. The HCD trapping gas was optimized for maximum sensitivity for intact proteins. The ionization method was electrospray ionization, which used a spray voltage of 4 kV, sheath gas flow set to 50 au, auxiliary gas flow set to 10 au and sweep gas flow set to 1 au. […]

Row | SMILES | Binding %
1 | C=CC(=O)N1C[C@H](C)N(c2nc(N3CC(N(CC)CC)C3)nc3c(F)c(-c4c(C)ccc5[nH]ncc45)c(Cl)cc23)C[C@H]1C (atropisomer, axis not shown) [Compound 151, 1-((2R,5S)-4-(6-chloro-2-(3-(diethylamino)azetidin-1-yl)-8-fluoro-7-((R)-5-methyl-1H-indazol-4-yl)quinazolin-4-yl)-2,5-dimethyl-piperazin-1-yl) prop-2-en-1-one] | +++ (+++ indicates binding activity greater than 90%)
2 | C=CC(=O)N1C[C@H](C)N(c2nc(N3CC(N(CC)CC)C3)nc3c(F)c(-c4c(C)ccc5[nH]ncc45)c(Cl)cc23)C[C@H]1C (atropisomer, axis not shown) [Compound 152, 1-((2R,5S)-4-(6-chloro-2-(3-(diethylamino)azetidin-1-yl)-8-fluoro-7-((S)-5-methyl-1H-indazol-4-yl)quinazolin-4-yl)-2,5-dimethyl-piperazin-1-yl) prop-2-en-1-one] | + (+ indicates binding activity greater than 0% and up to 50%)
3 | C=CC(=O)N1C[C@H](C)N(c2nc(N3CC(N(C)CC)C3)nc3c(F)c(-c4c(O)cccc4F)c(Cl)cc23)C[C@H]1C (atropisomer, axis not shown) [Compound 154, 1-((2R,5S)-4-(6-chloro-2-(3-(ethyl(methyl)amino)azetidin-1-yl)-8-fluoro-7-((S)-2-fluoro-6-hydroxyphenyl)quinazolin-4-yl)-2,5-dimethyl-piperazin-1-yl) prop-2-en-1-one] | +++ (+++ indicates binding activity greater than 90%)
4 | C=CC(=O)N1C[C@H](C)N(c2nc(N3CC(N(C)CC)C3)nc3c(F)c(-c4c(O)cccc4F)c(Cl)cc23)C[C@H]1C (atropisomer, axis not shown) [Compound 155, 1-((2R,5S)-4-(6-chloro-2-(3-(ethyl(methyl)amino)azetidin-1-yl)-8-fluoro-7-((R)-2-fluoro-6-hydroxyphenyl)quinazolin-4-yl)-2,5-dimethyl-piperazin-1-yl) prop-2-en-1-one] | + (+ indicates binding activity greater than 0% and up to 50%)
5 | C=CC(=O)N1C[C@H](C)N(c2nc(OCCN(CC)CC)nc3c(F)c(-c4c(C)ccc5cn[nH]c45)c(Cl)cc23)C[C@H]1C (atropisomer, axis not shown) [Compound 156, 1-((2R,5S)-4-(6-chloro-2-(2-(diethylamino)ethoxy)-8-fluoro-7-((R)-6-methyl-1H-indazol-7-yl)quinazolin-4-yl)-2,5-dimethyl-piperazin-1-yl) prop-2-en-1-one] | +++ (+++ indicates binding activity greater than 90%)
6 | C=CC(=O)N1C[C@H](C)N(c2nc(N3CC(N(CC)CC)C3)nc3c(F)c(-c4c(O)cccc4F)c(Cl)cc23)C[C@H]1C (atropisomer, axis not shown) [Compound 175, 1-((2R,5S)-4-(6-chloro-2-(3-(diethylamino)azetidin-1-yl)-8-fluoro-7-((S)-2-fluoro-6-hydroxyphenyl)quinazolin-4-yl)-2,5-dimethyl-piperazin-1-yl) prop-2-en-1-one] | +++ (+++ indicates binding activity greater than 90%)
7 | C=CC(=O)N1C[C@H](C)N(c2nc(N3CC(N(CC)CC)C3)nc3c(F)c(-c4c(O)cccc4F)c(Cl)cc23)C[C@H]1C (atropisomer, axis not shown) [Compound 176, 1-((2R,5S)-4-(6-chloro-2-(3-(diethylamino)azetidin-1-yl)-8-fluoro-7-((R)-2-fluoro-6-hydroxyphenyl)quinazolin-4-yl)-2,5-dimethyl-piperazin-1-yl) prop-2-en-1-one] | + (+ indicates binding activity greater than 0% and up to 50%)
8 | [2H]C([2H])([2H])N(C1CN(c2nc(N3C[C@@H](C)N(C(=O)C=C)C[C@@H]3C)c3cc(Cl)c(-c4c(O)cccc4F)c(F)c3n2)C1)C([2H])([2H])[2H] (atropisomer, axis not shown) [Compound 207, 1-((2R,5S)-4-(2-(3-(bis(triduetero-methyl)amino)azetidin-1-yl)-6-chloro-8-fluoro-7-((S)-2-fluoro-6-hydroxyphenyl)quinazolin-4-yl)-2,5-dimethyl-piperazin-1-yl) prop-2-en-1-one] | +++ (+++ indicates binding activity greater than 90%)
9 | [2H]C([2H])([2H])N(C1CN(c2nc(N3C[C@@H](C)N(C(=O)C=C)C[C@@H]3C)c3cc(Cl)c(-c4c(O)cccc4F)c(F)c3n2)C1)C([2H])([2H])[2H] (atropisomer, axis not shown) [Compound 212, 1-((2R,5S)-4-(2-(3-(bis(triduetero-methyl)amino)azetidin-1-yl)-6-chloro-8-fluoro-7-((R)-2-fluoro-6-hydroxyphenyl)quinazolin-4-yl)-2,5-dimethyl-piperazin-1-yl) prop-2-en-1-one] | + (+ indicates binding activity greater than 0% and up to 50%)
10 | C=CC(=O)N1C[C@H](C)N(c2nc(N3CC(N(C)C)C3)nc3c(F)c(-c4cc(O)cc5ccccc45)c(Cl)cc23)C[C@H]1C (atropisomer, axis not shown) [Compound 219, 1-((2R,5S)-4-(6-chloro-2-(3-(dimethylamino)azetidin-1-yl)-8-fluoro-7-((S)-3-hydroxynaphthalen-1-yl)quinazolin-4-yl)-2,5-dimethyl-piperazin-1-yl) prop-2-en-1-one] | +++ (+++ indicates binding activity greater than 90%)
11 | C=CC(=O)N1C[C@H](C)N(c2nc(N3CC(N(C)C)C3)nc3c(F)c(-c4cc(O)cc5ccccc45)c(Cl)cc23)C[C@H]1C (atropisomer, axis not shown) [Compound 220, 1-((2R,5S)-4-(6-chloro-2-(3-(dimethylamino)azetidin-1-yl)-8-fluoro-7-((R)-3-hydroxynaphthalen-1-yl)quinazolin-4-yl)-2,5-dimethyl-piperazin-1-yl) prop-2-en-1-one] | + (+ indicates binding activity greater than 0% and up to 50%)
12 | [2H]C([2H])([2H])N(C1CN(c2nc(N3C[C@@H](C)N(C(=O)C=C)C[C@@H]3C)c3cc(Cl)c(-c4c(C)ccc5[nH]ncc45)c(F)c3n2)C1)C([2H])([2H])[2H] (atropisomer, axis not shown) [Compound 226, 1-((2R,5S)-4-(6-chloro-2-(3-(bis(triduetero-methyl)amino)azetidin-1-yl)-8-fluoro-7-((R)-5-methyl-1H-indazol-4-yl)quinazolin-4-yl)-2,5-dimethyl-piperazin-1-yl) prop-2-en-1-one] | +++ (+++ indicates binding activity greater than 90%)
13 | [2H]C([2H])([2H])N(C1CN(c2nc(N3C[C@@H](C)N(C(=O)C=C)C[C@@H]3C)c3cc(Cl)c(-c4c(C)ccc5[nH]ncc45)c(F)c3n2)C1)C([2H])([2H])[2H] (atropisomer, axis not shown) [Compound 227, 1-((2R,5S)-4-(6-chloro-2-(3-(bis(triduetero-methyl)amino)azetidin-1-yl)-8-fluoro-7-((S)-5-methyl-1H-indazol-4-yl)quinazolin-4-yl)-2,5-dimethyl-piperazin-1-yl) prop-2-en-1-one] | + (+ indicates binding activity greater than 0% and up to 50%)
14 | [2H]C([2H])([2H])N(C1CN(c2nc(N3C[C@@H](C)N(C(=O)C=C)C[C@@H]3C)c3cc(Cl)c(-c4cc(O)cc5ccccc45)c(F)c3n2)C1)C([2H])([2H])[2H] (atropisomer, axis not shown) [Compound 228] | +++ (+++ indicates binding activity greater than 90%)
